Results as given in ChEMBL document CHEMBL5291721, “A preclinical secondary pharmacology resource illuminates target-adverse drug reaction associations of marketed drugs” (Nat Commun, 2023).

Experiments:
[1] = molecular target: Beta-1 adrenergic receptor (Homo sapiens, UniProt P08588); type: functional
Vasopressin V2 receptor = Vasopressin V2 receptor (Homo sapiens, UniProt P30518)
[2] = molecular target: Voltage-dependent L-type calcium channel subunit alpha-1C (Rattus norvegicus, UniProt P22002); type: functional
Histamine H2 receptor = Histamine H2 receptor (Homo sapiens, UniProt P25021); type: functional, cell-based
[3] = molecular target: T1, 5-hydroxytryptamine receptor 1A (Homo sapiens, UniProt P08908); type: functional, cell-based
T1 sequence (P08908 whole entry): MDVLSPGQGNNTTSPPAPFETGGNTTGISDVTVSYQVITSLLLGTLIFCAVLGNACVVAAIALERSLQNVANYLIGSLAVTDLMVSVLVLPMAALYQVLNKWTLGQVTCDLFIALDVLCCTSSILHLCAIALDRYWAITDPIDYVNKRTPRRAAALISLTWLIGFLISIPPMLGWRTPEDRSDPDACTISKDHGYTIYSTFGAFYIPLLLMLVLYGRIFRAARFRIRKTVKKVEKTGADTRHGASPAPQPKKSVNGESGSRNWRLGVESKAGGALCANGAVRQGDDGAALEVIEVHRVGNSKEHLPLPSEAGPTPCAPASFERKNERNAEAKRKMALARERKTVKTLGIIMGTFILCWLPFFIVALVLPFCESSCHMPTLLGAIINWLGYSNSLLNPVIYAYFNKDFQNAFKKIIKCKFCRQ

[4] = molecular target: T2, Neuropeptide Y receptor type 1 (Homo sapiens, UniProt P25929)
T2 sequence (P25929 whole entry): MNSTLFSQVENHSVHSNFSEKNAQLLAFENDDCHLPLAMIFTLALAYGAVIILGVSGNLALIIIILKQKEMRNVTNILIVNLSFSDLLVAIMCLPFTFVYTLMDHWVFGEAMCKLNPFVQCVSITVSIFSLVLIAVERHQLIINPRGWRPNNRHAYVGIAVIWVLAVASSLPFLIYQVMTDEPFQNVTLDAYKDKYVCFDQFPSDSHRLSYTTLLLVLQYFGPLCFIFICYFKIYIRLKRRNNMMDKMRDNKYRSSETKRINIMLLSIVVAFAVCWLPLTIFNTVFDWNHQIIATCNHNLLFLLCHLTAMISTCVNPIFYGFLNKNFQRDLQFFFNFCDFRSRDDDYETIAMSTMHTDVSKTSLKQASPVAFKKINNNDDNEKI

Acetylcholinesterase = Acetylcholinesterase (Homo sapiens, UniProt P22303); type: functional
D(3) dopamine receptor = D(3) dopamine receptor (Homo sapiens, UniProt P35462)
[5] = molecular target: 5-hydroxytryptamine receptor 2B (Homo sapiens, UniProt P41595); type: functional, cell-based
[6] = molecular target: Prostaglandin G/H synthase 1 (Homo sapiens, UniProt P23219); type: functional
[7] = molecular target: T3, Alpha-1A adrenergic receptor (Homo sapiens, UniProt P35348); type: functional, cell-based
T3 sequence (P35348 whole entry): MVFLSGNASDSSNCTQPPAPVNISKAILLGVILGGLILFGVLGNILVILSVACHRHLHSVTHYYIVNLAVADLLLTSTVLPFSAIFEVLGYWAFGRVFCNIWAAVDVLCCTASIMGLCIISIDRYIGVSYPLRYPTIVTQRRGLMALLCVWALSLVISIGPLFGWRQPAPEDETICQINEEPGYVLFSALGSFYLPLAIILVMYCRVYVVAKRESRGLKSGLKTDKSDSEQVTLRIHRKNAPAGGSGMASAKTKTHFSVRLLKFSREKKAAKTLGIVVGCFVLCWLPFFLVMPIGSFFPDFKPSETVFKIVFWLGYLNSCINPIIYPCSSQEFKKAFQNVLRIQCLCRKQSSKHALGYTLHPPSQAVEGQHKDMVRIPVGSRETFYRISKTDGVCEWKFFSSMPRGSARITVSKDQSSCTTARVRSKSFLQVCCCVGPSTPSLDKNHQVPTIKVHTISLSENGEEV
Note: assay procedure not described here.

Vasopressin V2 receptor, sequence (P30518 whole entry): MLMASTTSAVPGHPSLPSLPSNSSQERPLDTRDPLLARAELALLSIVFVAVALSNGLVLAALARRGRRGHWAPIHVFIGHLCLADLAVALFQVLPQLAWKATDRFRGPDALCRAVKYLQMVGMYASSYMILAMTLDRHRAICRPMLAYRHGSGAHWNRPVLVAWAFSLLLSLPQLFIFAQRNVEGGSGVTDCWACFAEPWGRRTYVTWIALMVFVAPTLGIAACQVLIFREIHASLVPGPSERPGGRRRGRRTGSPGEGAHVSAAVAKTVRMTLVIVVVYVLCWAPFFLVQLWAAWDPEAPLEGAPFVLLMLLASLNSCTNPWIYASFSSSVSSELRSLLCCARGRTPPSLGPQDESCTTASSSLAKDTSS
Histamine H2 receptor, sequence (P25021 whole entry): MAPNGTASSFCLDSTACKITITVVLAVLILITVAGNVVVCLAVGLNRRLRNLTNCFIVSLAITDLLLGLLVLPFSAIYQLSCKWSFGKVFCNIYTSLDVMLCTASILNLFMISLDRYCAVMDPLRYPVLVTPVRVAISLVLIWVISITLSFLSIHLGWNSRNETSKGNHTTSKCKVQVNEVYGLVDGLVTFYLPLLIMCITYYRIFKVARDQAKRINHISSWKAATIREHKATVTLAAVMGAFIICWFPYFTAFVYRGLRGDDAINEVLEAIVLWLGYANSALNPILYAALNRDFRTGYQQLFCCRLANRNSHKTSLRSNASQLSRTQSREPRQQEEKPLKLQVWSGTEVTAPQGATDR
Voltage-dependent L-type calcium channel subunit alpha-1C, sequence (P22002 whole entry): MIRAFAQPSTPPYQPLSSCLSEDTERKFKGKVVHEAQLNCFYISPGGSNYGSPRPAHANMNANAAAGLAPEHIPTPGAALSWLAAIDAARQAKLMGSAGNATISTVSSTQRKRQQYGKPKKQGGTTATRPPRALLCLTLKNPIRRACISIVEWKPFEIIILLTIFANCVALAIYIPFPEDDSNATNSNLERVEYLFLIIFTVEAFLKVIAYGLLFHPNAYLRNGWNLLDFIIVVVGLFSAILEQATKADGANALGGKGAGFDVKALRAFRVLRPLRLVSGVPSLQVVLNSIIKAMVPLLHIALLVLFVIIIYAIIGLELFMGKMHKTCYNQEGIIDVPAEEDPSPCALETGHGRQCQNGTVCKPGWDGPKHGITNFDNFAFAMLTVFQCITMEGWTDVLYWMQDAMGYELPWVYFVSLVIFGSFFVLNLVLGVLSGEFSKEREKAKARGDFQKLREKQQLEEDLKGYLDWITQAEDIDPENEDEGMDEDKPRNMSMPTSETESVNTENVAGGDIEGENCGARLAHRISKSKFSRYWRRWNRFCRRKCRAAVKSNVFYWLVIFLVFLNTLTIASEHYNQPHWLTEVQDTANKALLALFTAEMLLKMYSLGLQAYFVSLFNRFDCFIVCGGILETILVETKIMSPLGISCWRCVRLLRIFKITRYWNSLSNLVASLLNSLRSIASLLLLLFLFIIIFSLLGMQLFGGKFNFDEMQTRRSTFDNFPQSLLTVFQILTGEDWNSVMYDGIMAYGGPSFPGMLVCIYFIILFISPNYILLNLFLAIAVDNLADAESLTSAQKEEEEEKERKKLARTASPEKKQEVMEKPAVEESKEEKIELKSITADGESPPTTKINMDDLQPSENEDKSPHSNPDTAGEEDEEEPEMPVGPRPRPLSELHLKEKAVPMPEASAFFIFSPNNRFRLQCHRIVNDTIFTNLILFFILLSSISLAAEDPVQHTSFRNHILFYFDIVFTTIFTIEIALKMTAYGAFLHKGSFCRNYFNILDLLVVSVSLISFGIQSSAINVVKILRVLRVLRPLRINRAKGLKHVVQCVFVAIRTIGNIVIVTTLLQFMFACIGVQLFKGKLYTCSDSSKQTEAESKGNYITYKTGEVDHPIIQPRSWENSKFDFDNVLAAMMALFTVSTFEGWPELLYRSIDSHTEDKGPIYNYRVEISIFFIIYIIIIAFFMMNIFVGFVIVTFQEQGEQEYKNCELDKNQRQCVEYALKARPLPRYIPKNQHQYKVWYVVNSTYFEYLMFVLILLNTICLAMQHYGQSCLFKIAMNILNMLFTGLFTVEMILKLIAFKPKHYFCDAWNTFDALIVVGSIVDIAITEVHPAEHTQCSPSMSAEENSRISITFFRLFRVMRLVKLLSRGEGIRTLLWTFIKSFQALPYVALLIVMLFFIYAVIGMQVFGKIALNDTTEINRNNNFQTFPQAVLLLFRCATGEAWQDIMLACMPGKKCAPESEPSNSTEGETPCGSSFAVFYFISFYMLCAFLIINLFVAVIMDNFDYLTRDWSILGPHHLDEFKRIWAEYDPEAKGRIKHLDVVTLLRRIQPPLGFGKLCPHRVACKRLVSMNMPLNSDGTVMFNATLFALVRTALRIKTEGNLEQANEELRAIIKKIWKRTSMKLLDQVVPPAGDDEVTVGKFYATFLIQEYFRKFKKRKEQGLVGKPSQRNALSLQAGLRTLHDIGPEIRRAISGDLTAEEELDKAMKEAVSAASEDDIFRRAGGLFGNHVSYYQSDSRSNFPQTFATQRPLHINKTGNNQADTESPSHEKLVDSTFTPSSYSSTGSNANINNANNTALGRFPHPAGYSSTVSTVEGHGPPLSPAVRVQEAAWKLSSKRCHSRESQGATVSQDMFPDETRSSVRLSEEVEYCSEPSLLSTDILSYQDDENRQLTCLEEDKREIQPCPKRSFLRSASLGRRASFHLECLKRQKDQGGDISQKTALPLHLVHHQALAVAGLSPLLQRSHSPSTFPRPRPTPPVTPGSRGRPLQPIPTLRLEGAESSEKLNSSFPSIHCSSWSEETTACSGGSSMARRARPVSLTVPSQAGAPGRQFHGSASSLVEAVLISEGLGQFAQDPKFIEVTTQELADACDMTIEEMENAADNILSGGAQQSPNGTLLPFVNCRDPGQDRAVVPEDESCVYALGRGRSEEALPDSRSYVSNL
Beta-1 adrenergic receptor, sequence (P08588 whole entry): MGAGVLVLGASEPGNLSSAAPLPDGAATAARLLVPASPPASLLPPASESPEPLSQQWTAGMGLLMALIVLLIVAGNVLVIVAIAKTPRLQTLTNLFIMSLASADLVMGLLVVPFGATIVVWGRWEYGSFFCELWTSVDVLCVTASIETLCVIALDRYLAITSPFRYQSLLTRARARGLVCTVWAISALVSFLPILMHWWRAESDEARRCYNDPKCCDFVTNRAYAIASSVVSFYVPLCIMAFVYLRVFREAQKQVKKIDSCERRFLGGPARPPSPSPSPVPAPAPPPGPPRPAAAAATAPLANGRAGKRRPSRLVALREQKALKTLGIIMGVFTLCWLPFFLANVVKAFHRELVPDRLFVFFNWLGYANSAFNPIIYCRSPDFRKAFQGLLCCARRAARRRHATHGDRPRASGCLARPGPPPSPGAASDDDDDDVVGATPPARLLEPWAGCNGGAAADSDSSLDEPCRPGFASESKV
5-hydroxytryptamine receptor 2B, sequence (P41595 whole entry): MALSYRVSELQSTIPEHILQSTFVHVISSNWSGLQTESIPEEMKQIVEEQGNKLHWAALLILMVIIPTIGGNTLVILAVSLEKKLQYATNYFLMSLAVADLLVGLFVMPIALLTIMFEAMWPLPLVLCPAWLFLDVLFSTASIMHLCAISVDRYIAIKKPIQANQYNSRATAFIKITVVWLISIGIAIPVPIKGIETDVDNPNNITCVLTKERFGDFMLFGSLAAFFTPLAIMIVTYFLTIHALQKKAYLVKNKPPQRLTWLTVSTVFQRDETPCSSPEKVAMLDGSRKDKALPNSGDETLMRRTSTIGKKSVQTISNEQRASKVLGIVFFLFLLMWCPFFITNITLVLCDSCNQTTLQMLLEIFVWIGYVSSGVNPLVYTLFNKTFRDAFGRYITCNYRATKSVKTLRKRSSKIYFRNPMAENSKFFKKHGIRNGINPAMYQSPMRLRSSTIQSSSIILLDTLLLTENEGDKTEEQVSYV
D(3) dopamine receptor, sequence (P35462 whole entry): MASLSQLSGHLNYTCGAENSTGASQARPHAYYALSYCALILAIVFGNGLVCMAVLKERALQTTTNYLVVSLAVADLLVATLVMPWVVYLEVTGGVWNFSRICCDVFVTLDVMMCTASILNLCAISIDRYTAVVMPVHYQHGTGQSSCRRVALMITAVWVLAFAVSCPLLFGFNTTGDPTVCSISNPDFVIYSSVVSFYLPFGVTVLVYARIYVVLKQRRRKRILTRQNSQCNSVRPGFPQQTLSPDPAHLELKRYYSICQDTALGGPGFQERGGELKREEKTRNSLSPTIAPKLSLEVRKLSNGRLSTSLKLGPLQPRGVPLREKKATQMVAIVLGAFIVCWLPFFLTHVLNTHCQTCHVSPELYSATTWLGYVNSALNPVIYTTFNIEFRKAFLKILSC
Acetylcholinesterase, sequence (P22303 whole entry): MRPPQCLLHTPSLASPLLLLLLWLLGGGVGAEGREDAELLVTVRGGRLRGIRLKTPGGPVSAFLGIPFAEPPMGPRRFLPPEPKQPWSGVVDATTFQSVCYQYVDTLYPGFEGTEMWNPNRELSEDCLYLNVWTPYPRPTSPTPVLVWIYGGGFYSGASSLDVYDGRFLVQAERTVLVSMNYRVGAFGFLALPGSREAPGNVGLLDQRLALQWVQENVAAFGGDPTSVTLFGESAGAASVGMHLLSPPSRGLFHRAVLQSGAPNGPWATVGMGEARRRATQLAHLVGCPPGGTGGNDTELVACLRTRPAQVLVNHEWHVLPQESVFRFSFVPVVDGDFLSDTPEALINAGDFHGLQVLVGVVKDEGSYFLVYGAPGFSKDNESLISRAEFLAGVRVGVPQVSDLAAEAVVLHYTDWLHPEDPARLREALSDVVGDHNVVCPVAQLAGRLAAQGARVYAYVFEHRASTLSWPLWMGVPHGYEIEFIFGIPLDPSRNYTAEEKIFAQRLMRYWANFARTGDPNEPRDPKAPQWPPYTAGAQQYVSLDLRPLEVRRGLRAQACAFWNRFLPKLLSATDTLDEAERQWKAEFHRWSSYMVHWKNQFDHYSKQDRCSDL

| Compound | AC50 [1] [µM] | AC50 (Vasopressin V2 receptor) [µM] | AC50 [2] [µM] | AC50 (Histamine H2 receptor) [µM] | AC50 [3] [µM] | AC50 [4] [µM] | AC50 (Acetylcholinesterase) [µM] | AC50 (D(3) dopamine receptor) [µM] | AC50 [5] [µM] | AC50 [6] [µM] | AC50 [7] [µM] |
| --- | --- | --- | --- | --- | --- | --- | --- | --- | --- | --- | --- |
| COC(=O)N[C@H](C(=O)N[C@@H](Cc1ccccc1)[C@@H](O)CN(Cc1ccc(-c2ccccn2)cc1)NC(=O)[C@@H](NC(=O)OC)C(C)(C)C)C(C)(C)C [ATAZANAVIR] | > 10 | > 30 | > 10 | > 10 | > 10 | > 30 |  |  |  |  |  |
| Cc1cc(O)cc(C)c1Cl [CHLOROXYLENOL] |  |  |  |  |  |  | > 30 | > 30 | > 30 | > 30 |  |
| CN(C)CCCN1c2ccccc2CCc2ccc(Cl)cc21 [CLOMIPRAMINE] |  |  | > 10 | > 30 |  |  | > 30 | 0.0393 | > 30 |  | 1.4 |
| O=C(O)c1cc(-c2ccc(F)cc2F)ccc1O [DIFLUNISAL] | > 10 | > 10 | > 10 | > 30 | > 10 | > 10 |  |  |  |  |  |
| C[C@@H]1O[C@@H]1P(=O)(O)O [FOSFOMYCIN] | > 10 | > 10 | > 10 | > 10 | > 10 | > 10 |  |  |  |  |  |
| NC[C@H]1O[C@H](O[C@H]2[C@H](O)[C@@H](O[C@H]3O[C@H](CO)[C@@H](O)[C@H](N)[C@H]3O)[C@H](N)C[C@@H]2N)[C@H](O)[C@@H](O)[C@@H]1O [KANAMYCIN] |  | > 10 | > 10 | > 30 | > 10 | > 10 |  |  |  |  | > 30 |
| CN1C(=O)CC(C)(c2ccccc2)C1=O (stereo unspecified) [METHSUXIMIDE] | > 10 | > 10 | > 10 | > 30 | > 10 | > 10 |  |  |  |  |  |
| C[C@H]1C[C@@H]2[C@H]([C@@H](O)C[C@@]3(C)[C@H]2CC[C@]3(O)C(=O)CO)[C@@]2(C)C=CC(=O)C=C12 [METHYLPREDNISOLONE] | > 10 | > 10 | > 10 | > 30 | > 10 | > 10 |  |  |  |  |  |
| CC(C)(C(=O)c1cccnc1)c1cccnc1 [METYRAPONE] | > 10 | > 10 | > 10 | > 10 | > 10 | > 10 |  |  |  |  |  |
| O=C1CC[C@@]2(O)[C@H]3Cc4ccc(O)c5c4[C@@]2(CCN3CC2CC2)[C@H]1O5 [NALTREXONE] |  |  |  |  |  |  | > 30 | > 30 | > 30 | > 30 |  |
| COC(=O)C1=C(C)NC(C)=C(C(=O)OCC(C)C)C1c1ccccc1[N+](=O)[O-] (stereo unspecified) [NISOLDIPINE] | > 10 | > 10 | 4.62 | > 30 | > 10 | > 10 |  |  |  |  | 11 |
| NC1=NC(=O)C(c2ccccc2)O1 (stereo unspecified) [PEMOLINE] | > 10 | > 30 | > 10 | > 10 | > 10 | > 30 |  |  |  |  |  |
| CC(C(=O)O)c1ccc(C(=O)c2cccs2)cc1 (stereo unspecified) [SUPROFEN] |  | > 10 | > 10 | > 10 | > 10 | > 10 |  |  |  |  |  |
| Cc1ccc(C(=O)c2cc(O)c(O)c([N+](=O)[O-])c2)cc1 [TOLCAPONE] | > 10 | > 10 | > 10 | > 10 | 5.6 | > 10 |  |  |  |  |  |
| NC[C@H]1CC[C@H](C(=O)O)CC1 [TRANEXAMIC ACID] | > 10 | > 10 | > 10 | > 30 | > 10 | > 10 |  |  |  |  |  |
